Key:
[1] = tested on: butyryl cholinesterase (EC 3.1.1.8); assay: Stability toward purified esterases: butyryl cholinesterase (EC 3.1.1.8); format: in vitro ADME, horse; settings: pH 8.0, 37.0° C., over 2-3 hours
Protocol: (§1) The effect of esterase (carboxylic-ester hydrolase, EC 3.1.1.1) and butyryl cholinesterase (EC 3.1.1.8), isolated from porcine liver and horse serum, was tested as follows: A portion of the enzyme and […] of a standard solution of the compound in methanol were added to 2.50 ml of 0.05M TRIS buffer, pH 8.0, previously equilibrated to 37.0° C., resulting in solutions containing 5.2 units of enzyme and 0.4 mg of compound in one ml. Aliquots ([…]) were injected into the column at various intervals.

[2] = In vivo evaluation in rats (blood, urine and feces levels); parameters: species or system female Wistar rats; settings: for Compound in urine after intravenous injection: i.v.
Protocol: A solution of test compound in DMSO was injected slowly through the jugular vein (65 mg/kg) to a group of female Wistar rats (150-200 g), 1.00 ml blood samples were taken at various time intervals, mixed with 2.00 ml of ice cold acetonitrile, and placed in a freezer. When all samples had been collected, they were centrifuged and the supernatant analyzed by HPLC. In a separate experiment urine samples were collected after i.v. administration of the test compound. A solution of test compound in polyethylene glycol was given p.o. to a group of rats (0.25 g/kg) and blood samples analyzed as before. Also, urine and feces samples were analyzed after p.o. administration of the test compound.

[3] = Stability toward human plasma; format: in vitro ADME; settings: 37.0° C., over 2-3 hours
Protocol: The freshly collected human plasma was stored in a refrigerator and used within 1 week from the date it was collected. A portion of […] at a standard methanol solution of the compound to be tested was mixed with 7.0 ml of plasma, previously equilibrated to 37.0° C., to result in an initial concentration of 0.2 mg/ml. Samples of 1.0 ml were withdrawn from the test medium, mixed immediately with 4.0 ml of ice cold 95% ethanol, and placed in a freezer. When all samples had been collected, they were centrifuged and the supernatant analyzed by HPLC.

[4] = Metabolism in bovine liver microsomal preparations; format: in vitro ADME; settings: 37.0° C., pH 8.0, 1 mg/ml
Protocol: Two kg of minced bovine liver were mixed with 4 liters of homogenization medium (0.34M sucrose, 1 mM EDTA, and 5 mM TRIS-HCI buffer ph 7.5) and sieved through a screen. The sieved tissue was homogenized for 2 min in a Tekmar grinder. The homogenate was centrifuged successively at 980 g for 10 min and 10960 g for 10 min. The resulting supernatant was then centrifuged at 31300 g for 45 min. All procedures were carried out at 4° C. The microsomal pallet was suspended in an equal volume of 20 mM TRIS-HCI buffer pH 8.0 containing 1 mM EDTA. Centrifugation of this suspension at 123000 g for 90 min gave a pallet which is referred to as the washed microsomes. This pallet could be stored frozen for months with little loss of activity.
The washed microsomes were mixed in a ratio of 1:2 (v/v) with 50 mM TRIS-HCI buffer ph 8.0. To 3.0 ml of this solution, previously equilibrated to 37.0° C., was added 0.2 ml of a standard solution of the compound to be tested resulting in an initial concentration of 1 mg/ml. Samples of 0.50 ml were withdrawn from the test medium, mixed immediately with 1.0 ml of ice cold 95% ethanol and place in a freezer. When all samples had been collected, they were centrifuged and the supernatant analyzed by HPLC.

[5] = Estimation of LD50 in mice; settings: mouse, in vivo, ip, intraperitoneal in dimethylsulfoxide, observed for 48 hr
Source text: The LD50 in white CD-1 male mice (average mass, 24.0±0.1 g) was estimated.

ventricular arrhythmia = assay: Evaluation of antiarrhythmic activity in dogs (ouabain-induced ventricular arrhythmia); format: in vivo, dog; settings: for minimal effective dose: Canis lupus familiaris, iv, ouabain arrhythmia, i.v. infusion 0.5 mg/kg/min, read-out: Dose ± s.d. (dose of compound producing reversion to normal rhythm); for Duration of normal sinus rhythm after drug infusion: after end of i.v. infusion; for Dose required to produce reversion to normal rhythm relative to lidocaine / Duration of the effect relative to lidocaine: compared with lidocaine; for Arrhythmia activity in dogs: in words
Protocol: Dogs of either sex were anesthetized with pentabarbital sodium, 30 mg/kg, i.v. A lead II EKG was recorded and heart rate monitored on a Grass polygraph with appropriate signal treatment modules. […] After a 20 minute stabilization period during which fast paper speed record segments (100 mm/sec) were taken to assess EKG profile, a […] dose of ouabain was injected intravenously as bolus. This was followed by 5 mg/kg doses of ouabain i.v., every 10 minutes, until a ventricular arrthymias occured--at lest 50% ventricular or septal ectopic beats. This usually occurred after a total dose of about 60 mg/kg. After 10 min of sustained arrhythmia, the compound to be tested was given by i.v. in fusion at a rate of 0.5 mg/kg/min (2 ml/min, flow-rate). The infusion was maintained until a normal sinus node heart rhythm was noted. The infusion was stopped and the total dose of compound administered was determined. The length of time that the normal sinus rhythm persisted after the end of infusion of the compound was also determined.
In the table above, "dose" is dose of compound mg/kg producing reversion to normal rhythm. "Duration" is duration in minutes of normal sinus rhythm after drug infusion.

[6] = tested on: esterase (carboxylic-ester hydrolase, EC 3.1.1.1); assay: Stability toward purified esterases: esterase (carboxylic-ester hydrolase, EC 3.1.1.1); format: in vitro ADME, porcine; settings: pH 8.0, 37.0° C., over 2-3 hours
Protocol: as §1

[7] = intravenous, after uptake by highly perfused organs; cited from earlier work

Row | Structure (SMILES) | Stability / degradation by butyryl cholinesterase [1] | Compound in urine after intravenous injection [2] | Unchanged compound in blood ([2]; p.o.) | Unchanged compound in urine ([2]; p.o.) | Absorption after oral administration ([2]; p.o. 0.25 g/kg) | dose excreted ([2]; rat, feces, po, 250 mg/kg, p.o., read-out: Unchanged compound in feces) | Stability / degradation in human plasma [3] | Hydrolysis by bovine liver microsomes [4] | LD50 at 48 h [5] | minimal effective dose (ventricular arrhythmia) | Duration of normal sinus rhythm after drug infusion (ventricular arrhythmia) | Dose required to produce reversion to normal rhythm relative to lidocaine (ventricular arrhythmia) | Duration of the effect relative to lidocaine (ventricular arrhythmia) | Arrhythmia activity in dogs (ventricular arrhythmia) | Stability / degradation by esterase [6] | Bioavailability ([2]; p.o.) | Unchanged compound in feces (in words) ([2]; p.o.) | Part of the dose left in blood [7]
1 | Cc1cccc(C)c1NC(=O)C[S+](C)C [Example 2, 2-Dimethylsulfonic-N-(2,6-dimethylphenyl)acetamide iodide] | no degradation could be observed over a period of 2-3 hours | Only minimal amounts | significant amounts of the unchanged compound could be detected in the blood | nothing in the urine | absorbed slowly | ~7% | no degradation could be observed over a period of 2-3 hours | hydrolyzed very slowly | 300 mg/kg | 3.82 ± 0.85 mg/kg | > 15 min | somewhat larger doses were required | much longer | considerable arrhythmia activity | no degradation could be observed over a period of 2-3 hours | – | – | –
2 | CCSCC(=O)Nc1c(C)cccc1C [Example 5, 2-Ethylthio-N-(2,6-dimethylphenyl)acetamide] | no degradation could be observed over a period of 2-3 hours | Only minimal amounts | – | no unchanged compound could be detected in the feces or the urine | – | – | no degradation could be observed over a period of 2-3 hours | – | 2100 mg/kg | 2.5 ± 2.8 mg/kg | > 20 min | somewhat larger doses were required | much longer | considerable arrhythmia activity | no degradation could be observed over a period of 2-3 hours | good bioavailability | no unchanged compound could be detected in the feces or the urine | –
3 | CCN(CC)CC(=O)Nc1c(C)cccc1C [lidocaine, reference compound] | – | – | – | – | – | – | – | – | – | 1.84 ± 0.32 mg/kg | 1.23 ± 0.37 min | – | – | – | – | – | – | about 15%
